Data set [1] deals with T1, Broad substrate specificity ATP-binding cassette transporter ABCG2 (Homo sapiens, UniProt Q9UNQ0).
T1 sequence (Q9UNQ0 whole entry): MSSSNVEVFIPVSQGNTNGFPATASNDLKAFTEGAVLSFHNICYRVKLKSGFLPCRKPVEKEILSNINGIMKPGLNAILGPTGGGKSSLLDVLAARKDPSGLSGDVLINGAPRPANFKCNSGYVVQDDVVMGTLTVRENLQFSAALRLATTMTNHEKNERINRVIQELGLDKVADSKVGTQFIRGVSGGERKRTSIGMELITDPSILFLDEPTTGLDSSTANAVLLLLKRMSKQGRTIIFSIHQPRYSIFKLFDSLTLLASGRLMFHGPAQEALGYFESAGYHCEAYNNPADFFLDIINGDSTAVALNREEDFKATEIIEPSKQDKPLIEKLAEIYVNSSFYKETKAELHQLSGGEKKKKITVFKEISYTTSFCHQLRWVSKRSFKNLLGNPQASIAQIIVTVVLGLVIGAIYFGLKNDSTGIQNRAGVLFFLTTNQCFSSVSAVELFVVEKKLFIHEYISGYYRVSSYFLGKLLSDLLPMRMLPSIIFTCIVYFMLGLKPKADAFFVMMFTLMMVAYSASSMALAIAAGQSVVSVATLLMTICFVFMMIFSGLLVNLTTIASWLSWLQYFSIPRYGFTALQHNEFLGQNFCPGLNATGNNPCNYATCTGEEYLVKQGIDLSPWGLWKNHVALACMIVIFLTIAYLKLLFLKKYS
As to the kind of experiment: Inhibition of BCRP (unknown origin)-dependent ATPase activity at 50 uM after 30 mins by malachite green method. The conditions noted are these: 0.5 h.

For data set [2], the target named is T1, Broad substrate specificity ATP-binding cassette transporter ABCG2. In words: Inhibition of BCRP in human K562 cells assessed as potentiation of SN38-mediated growth inhibition at 3 uM after 4 days by coulter counter method. The format is cell-based. The conditions noted are these: k562, 96 h.
Data set [3] can be described thus: Cytotoxicity against human HeLa cells assessed as reduction in cell viability after 48 hrs by SF-based cell counting method. The data set is classed as functional.
The nature of data set [4]: Inhibition of Drosophila Kinesin-1 assessed as reduction in microtubule-stimulated ATPase activity preincubated for 15 mins followed by microtubule addition in the presence of ATP after 6 mins by malachite green method.
Data set [5] has as its target T2, Kinesin-like protein KIF11 (Homo sapiens, UniProt P52732).
T2 sequence (P52732 whole entry): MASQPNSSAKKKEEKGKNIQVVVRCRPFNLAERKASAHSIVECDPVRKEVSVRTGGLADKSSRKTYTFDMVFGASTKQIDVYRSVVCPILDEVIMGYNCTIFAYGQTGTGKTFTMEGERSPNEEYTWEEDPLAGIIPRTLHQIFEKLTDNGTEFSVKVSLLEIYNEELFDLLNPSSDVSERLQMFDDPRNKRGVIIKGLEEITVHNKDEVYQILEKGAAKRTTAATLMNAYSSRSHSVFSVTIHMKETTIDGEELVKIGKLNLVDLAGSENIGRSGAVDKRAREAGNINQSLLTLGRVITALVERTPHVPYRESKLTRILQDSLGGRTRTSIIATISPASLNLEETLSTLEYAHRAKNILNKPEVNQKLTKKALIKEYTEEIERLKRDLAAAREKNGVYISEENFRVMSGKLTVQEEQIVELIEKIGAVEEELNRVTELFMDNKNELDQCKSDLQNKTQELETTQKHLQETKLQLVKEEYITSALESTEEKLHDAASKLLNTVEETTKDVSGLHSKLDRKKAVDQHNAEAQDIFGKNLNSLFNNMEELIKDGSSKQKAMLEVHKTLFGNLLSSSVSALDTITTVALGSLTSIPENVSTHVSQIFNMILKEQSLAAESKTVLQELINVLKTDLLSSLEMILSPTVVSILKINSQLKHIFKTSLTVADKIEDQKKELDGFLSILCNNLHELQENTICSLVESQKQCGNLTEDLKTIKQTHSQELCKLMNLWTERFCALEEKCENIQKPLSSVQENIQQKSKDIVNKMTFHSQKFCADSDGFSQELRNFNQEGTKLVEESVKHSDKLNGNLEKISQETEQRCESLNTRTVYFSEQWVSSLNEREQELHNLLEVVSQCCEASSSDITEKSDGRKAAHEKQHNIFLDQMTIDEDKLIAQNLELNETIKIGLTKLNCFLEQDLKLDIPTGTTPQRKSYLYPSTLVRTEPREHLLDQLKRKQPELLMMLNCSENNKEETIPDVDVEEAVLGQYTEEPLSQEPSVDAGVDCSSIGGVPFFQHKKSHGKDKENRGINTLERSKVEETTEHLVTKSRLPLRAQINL
In words: Inhibition of wild type eXact-tagged human Eg5 motor domain (1 to 368 residues) expressed in Escherichia coli BL21(DE3) assessed as reduction in microtubule-stimulated ATPase activity preincubated for 15 mins followed by microtubule addition in the presence of ATP after 6 mins by malachite green method.

The nature of data set [6]: Cytotoxicity against human HeLa cells. The data set is classed as functional, cell-based.
Data set [7] can be described thus: Cytotoxicity against human HT-29 cells. The format is functional, cell-based.
The nature of data set [8]: Cytotoxicity against human MCF7 cells. The data set is classed as functional, cell-based.
Data set [9] is described as follows: Cytotoxicity against human Jurkat cells. The format is functional, cell-based.

With `COc1ccc2c3c([nH]c2c1)[C@H](C=C(C)C)N1C(=O)[C@@H]2CCCN2C(=O)[C@@H]1C3` [FUMITREMORGIN], the “inhibition (INH)” value in data set [1] and in data set [2] was “Active” throughout.
For the compound `COc1ccc2c3c([nH]c2c1)[C@H](C=C(C)C)N1C(=O)[C@@H]2CCCN2C(=O)[C@]1(O)[C@H]3O`, the “inhibition (INH)” value in data set [1] and in data set [2] was “Active” in each case.
What is called IC50 is the point on the concentration scale where inhibition reaches its midpoint. On to `CC(C)(O)[C@@H]1C[C@@H](O)[C@]2(C)[C@H](CC[C@@]3(C)[C@H]2CC[C@H]2Cc4c([nH]c5ccccc45)[C@@]23C)O1` [TERPENDOLE E], for which the half-maximal inhibitory concentration (IC50) in data set [3] is 12.1 µM; in data set [4] it was greater than 100 µM; in data set [5] it was 34.7 µM.
Take `CC(C)=C[C@H]1c2[nH]c3ccccc3c2C[C@H]2C(=O)N3CCC[C@H]3C(=O)N21` [DEMETHOXYFUMITREMORGIN C]: the “inhibition (INH)” value in data set [1] and in [2] was “Active” in each case.
As to `COc1ccc2c3c(n(CC=C(C)C)c2c1)[C@H](C=C(C)C)N1C(=O)[C@@H]2CCCN2C(=O)[C@]1(O)[C@H]3O`, the half-maximal inhibitory concentration (IC50) in data set [6], in [7], in data set [8] and in data set [9] was 5 to 15 µM throughout. Besides, the “inhibition (INH)” value in [1] and in [2] was “Active” in each case.
For the compound `CC(C)(O)[C@@H]1CC(=O)[C@]2(C)[C@H](CC[C@@]3(C)[C@H]2CC[C@H]2Cc4c([nH]c5ccccc45)[C@@]23C)O1`, the concentration for half-maximal inhibition (IC50) was 2.9 µM in data set [3], greater than 100 µM in data set [4] and 16.5 µM in [5].
As to `COc1ccc2c3c4n(c2c1)[C@@H](C=C(C)C)OOC(C)(C)C[C@@H]4N1C(=O)[C@@H]2CCCN2C(=O)[C@]1(O)[C@H]3O`, the IC50 in [6], in data set [7], in data set [8] and in data set [9] was 20 to 30 µM throughout. For the same compound, the “inhibition (INH)” value in data set [1] and in [2] was “Active” each time.

For the origin of these results see ChEMBL document CHEMBL3875184, “Biosynthetic approaches to creating bioactive fungal metabolites: Pathway engineering and activation of secondary metabolism” (Bioorg Med Chem Lett, 2016).
